Our source for the inhibition and Ki values is US5840725A, “Substituted oximes, hydrazones and olefins as neurokinin antagonists” (Schering Corporation, priority 1997, dated 1998).

The target in assay [1] is T1, human neurokinin 1 (NK1) receptor (Homo sapiens, UniProt P25103).
T1 construct: expressed in transfected cells; host or cells: Chinese Hamster ovary (CHO) cells
Description: Neurokinin Receptor Binding Assay, NK1. As for the experimental part: (§1) Neurokinin Receptor Binding Assay(s)
(§2) Chinese Hamster ovary (CHO) cells transfected with the coding regions for the human neurokinin 1 (NK1) of the human neurokinin 2 (NK2) receptors are grown in Dulbecco's minimal essential medium supplemented with 10% fetal calf serum, 0.1 mM non-essential amino acids, 2 mM glutamine, 100units/ml of penicillin and streptomycin, and 0.8 mg of G418/ml at 37° C. in a humidified atmosphere containing 5% CO2.
(§3) Cells are detached from T-175 flasks with a sterile solution containing 5 mM EDTA in phosphate buffered saline. Cells are harvested by centrifugation and washed in RPMl media at […] for 5 minutes. The pellet is resuspended inTris-HCl (pH7.4) containing 1 uM phsphoramidon and 4 ug/ml of chymostatin at a cell density of 30×10^6 cells/ml. The suspension is then homogenized in a Brinkman Polytron (setting 5) for 30-45 seconds. The homogenate is centrifuged at 800×g for 5 min at 4° C. to collect unbroken cells and nuclei. The supernatant is centrifuged in a Sorvall RC5C at 19,000 rpm ([…]) for 30 min at 4° C. The pellet is resuspended, an aliquot is removed for a protein determination (BCA) and washed again. The resulting pellet is stored at -80° C.
(§4) To assay receptor binding, 50 μl of [^3 H]-Substance P (9-Sar, 11 -Met) (specific activity 41 Ci/mmol) (Dupont-NEN) (0.8 nM for the NK-1 assay) or [^3 H]-Neurokinin A (specific activity 114 Ci/mmole) (Zenca) (1.0 nM for the NK-2 assay) is added to tubes containing buffer (50 mM Tris-HCl (pH 7.4) with 1 mM MnCl2 and 0.2% Bovine Serum Albumin) and either DMSO or test compound. Binding is initiated by the addition of 100 μl of membrane (10-20 μg) containing the human NK-1 or NK-2 receptor in a final volume of 200 μl. After 40 minutes at room temperature, the reaction is stopped by rapid filtration onto Whatman GF/C filters which have been presoaked in 0.3% polyethylenimine. Filters are washed 2 times with 3 ml of 50 mM Tris-HCl (pH7.4). Filters are added to 6 mIs of Ready-Safe liquid scintillation cocktail and quantified by liquid scintillation spectrometry in a LKB 1219 RackBeta counter. Non-specific binding is determined by the addition of either 1 μM of CP-99994 (NK-1) or 1 μM SR-48968 (NK-2) (both synthesized by the chemistry department of Schering-Plough Research Institute). IC50 values are determined from competition binding curves and Ki values are determined according to Cheng and Prusoff using the experimentally determined value of 0.8 nM for the NK-1 receptor and 2.4 nM for the NK-2 receptor.
(§5) % Inhibition is the difference between the percent of maximum specific binding (MSB) and 100%. The percent of MSB is defined by the following equation, wherein "dpm" is disintegrations per minute: [formula]

The target in assay [2] is T2, human neurokinin 2 (NK2) receptor (Homo sapiens, UniProt P21452).
T2 construct: expressed in transfected cells; host or cells: Chinese Hamster ovary (CHO) cells
T2 sequence (P21452 1-398): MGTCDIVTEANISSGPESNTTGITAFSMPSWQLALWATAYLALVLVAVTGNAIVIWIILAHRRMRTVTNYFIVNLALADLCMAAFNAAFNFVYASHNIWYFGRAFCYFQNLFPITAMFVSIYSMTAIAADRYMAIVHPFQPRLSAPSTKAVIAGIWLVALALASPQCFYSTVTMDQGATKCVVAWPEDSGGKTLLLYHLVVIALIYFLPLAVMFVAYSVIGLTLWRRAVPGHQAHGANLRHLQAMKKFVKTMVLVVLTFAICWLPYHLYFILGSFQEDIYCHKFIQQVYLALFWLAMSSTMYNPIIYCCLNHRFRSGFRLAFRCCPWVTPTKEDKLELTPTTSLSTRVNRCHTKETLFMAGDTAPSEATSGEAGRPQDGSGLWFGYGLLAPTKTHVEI
In words: Neurokinin Receptor Binding Assay, NK2. To be noted: for inhibition at 1 µM: read-out: % Inhibition NK2 (1 μM dose). As for the experimental part: as §1, §2, §3, §4, §5

For a further assay, the target named is T3, NK3 (Homo sapiens, UniProt P29371).
T3 sequence (P29371 1-465): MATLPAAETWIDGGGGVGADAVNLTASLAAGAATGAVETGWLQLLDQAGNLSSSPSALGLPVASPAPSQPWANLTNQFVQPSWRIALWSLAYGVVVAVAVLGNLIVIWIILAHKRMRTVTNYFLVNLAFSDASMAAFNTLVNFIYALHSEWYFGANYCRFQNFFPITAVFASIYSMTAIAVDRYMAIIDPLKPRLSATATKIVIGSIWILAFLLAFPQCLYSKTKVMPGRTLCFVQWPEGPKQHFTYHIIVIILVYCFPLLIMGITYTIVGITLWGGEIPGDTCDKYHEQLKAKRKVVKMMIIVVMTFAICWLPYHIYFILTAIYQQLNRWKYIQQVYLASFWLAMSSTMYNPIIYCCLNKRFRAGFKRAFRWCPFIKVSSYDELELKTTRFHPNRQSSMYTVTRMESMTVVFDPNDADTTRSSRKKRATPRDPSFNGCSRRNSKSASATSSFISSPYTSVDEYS
Description: NK3 activity (procedure similar to literature). Type of assay: binding. As for the experimental part: NK3 activity is determined by following a procedure similar to that described in the literature, e.g., Molecular PharmacoL, 48 (1995), p. 711-716.

The mark [3] stands for this setting: [3H]-Substance P, CHO cell membranes.
[4] abbreviates: 1 μM dose, [3H]-Neurokinin A, CHO cell membranes.
[5] abbreviates: [3H]-Substance P, CHO cell membranes, read-out: Ki (NK1).
Setting [6] is: [3H]-Neurokinin A, CHO cell membranes, read-out: Ki (NK2).

Where two headings read alike, the source gives them in different places.

T1 sequence (P25103 whole entry): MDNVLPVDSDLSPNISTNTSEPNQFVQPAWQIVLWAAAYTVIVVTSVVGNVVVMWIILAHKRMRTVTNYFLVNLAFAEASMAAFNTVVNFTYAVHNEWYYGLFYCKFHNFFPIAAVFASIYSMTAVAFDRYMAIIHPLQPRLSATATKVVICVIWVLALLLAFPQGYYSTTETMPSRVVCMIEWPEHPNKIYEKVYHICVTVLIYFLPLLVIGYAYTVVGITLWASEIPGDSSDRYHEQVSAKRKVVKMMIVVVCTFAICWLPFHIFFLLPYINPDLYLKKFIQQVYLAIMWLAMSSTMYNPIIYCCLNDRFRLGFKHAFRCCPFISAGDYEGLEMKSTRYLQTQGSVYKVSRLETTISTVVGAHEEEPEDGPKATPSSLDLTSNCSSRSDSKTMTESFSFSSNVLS

For the compound `OC1(c2ccccc2)CCN(CCC(C(COCc2cc(C(F)(F)F)cc(C(F)(F)F)c2)=NOCc2ccccc2)c2ccc(Cl)c(Cl)c2)CC1` (stereo not shown) [Example 1C], the inhibition at 1 µM in assay [1] (setting [3]) was found to be 44%; in assay [2] (setting [4]), 16%.
As to `CON=C(COCc1cc(C(F)(F)F)cc(C(F)(F)F)c1)C(CCN1CCC(O)(c2ccccc2)CC1)c1ccc(Cl)c(Cl)c1` (stereo not shown) [Example 1], the Ki was determined as 25 nM in assay [1], 20 nM in assay [2] and 109 nM at NK3. The inhibition at 1 µM in assay [1] (setting [3]) was 88%; in assay [2], 95%.
`CCOC(=O)C=C(COCc1cc(C(F)(F)F)cc(C(F)(F)F)c1)C(CCN1CCC(O)(c2ccccc2)CC1)c1ccc(Cl)c(Cl)c1` (stereo not shown) [Example 2]: the inhibition at 1 µM stood at 69% in assay [1] (setting [3]) and 17% in assay [2] (setting [4]). For the same compound, the inhibition constant Ki in assay [1] (setting [5]) was determined as 40 nM.
For `CN1CCN(N=C(COCc2cc(C(F)(F)F)cc(C(F)(F)F)c2)C(CCN2CCC(O)(c3ccccc3)CC2)c2ccc(Cl)c(Cl)c2)CC1` (stereo not shown) [Example 7], in that order: 69%, 13% and 121 nM.
Turning to `CON=C(COCc1cccc(C)c1F)C(CCN1CCC(O)(c2ccccc2)CC1)c1ccc(Cl)c(Cl)c1` (stereo not shown) [Example 22AK], the figures for the inhibition at 1 µM in assay [1] (setting [3]) and in assay [2] (setting [4]) were 67% and 95%, respectively. Further, the inhibition constant (Ki) is 132 nM in assay [1] (setting [5]) and 2 nM in assay [2] (setting [6]).
For the compound `CON=C(COCc1noc(C(C)(C)C)n1)C(CCN1CCC(O)(c2ccccc2)CC1)c1ccc(Cl)c(Cl)c1` (stereo not shown) [Example 22AL], the inhibition at 1 µM was 12% in assay [1] (setting [3]) and 100% in assay [2] (setting [4]). Further, the inhibition constant Ki in assay [2] (setting [6]) worked out at 2 nM.
For the compound `OCCN(CC=C(COCc1cc(C(F)(F)F)cc(C(F)(F)F)c1)C(CCN1CCC(O)(c2ccccc2)CC1)c1ccc(Cl)c(Cl)c1)CCO` (stereo not shown) [Example 35C], the inhibition at 1 µM was 93% in assay [1] (setting [3]) and 0% in assay [2] (setting [4]). Moreover, the inhibitory constant (Ki) in assay [1] (setting [5]) is 2 nM.
Turning to `NC(CON=C(COCc1cc(C(F)(F)F)cc(C(F)(F)F)c1)C(CCN1CCC(N2CCCCC2)CC1)c1ccc(Cl)c(Cl)c1)=NO` (stereo not shown) [Example 39F], the inhibition at 1 µM in assay [1] (setting [3]) turned out to be 93%; in assay [2] (setting [4]), 96%. For the same compound, the Ki in assay [1] (setting [5]) was determined as 4.3 nM; in assay [2] (setting [6]), 12 nM.
As for `CON=C(COCc1cc(C(F)(F)F)cc(C(F)(F)F)c1)C(CCN1CCC(C(=O)N2CCCC2)CC1)c1ccc(Cl)c(Cl)c1` (stereo not shown) [Example 42L], the inhibition at 1 µM amounted to 91% in assay [1] (setting [3]) and 86% in assay [2] (setting [4]). Moreover, the Ki in assay [1] (setting [5]) turned out to be 4.6 nM; in assay [2] (setting [6]), 123 nM.

One may read the inhibition as the drop in the measured response relative to a control, in per cent. As usually defined, the Ki is the dissociation constant of the complex between target and ligand, obtained from inhibition or displacement.
